In US7264832B2, “Cyclooxygenase-2 inhibitory withanolide compositions and method” (Board of Trustees of Michigan State University, priority 2002, dated 2007):

How the values were obtained:
[1] = Antioxidant activity: inhibition of Fe2+-initiated lipid peroxidation in large unilamellar vesicles; settings: 100 ppm (100 μg/ml), at 20 min, relative to DMSO control
Protocol: The ability of withanolides to inhibit lipid peroxidation in a model system was used to determine whether they could act as antioxidants. The assay was conducted by using large unilamellar vesicles and peroxidation was initiated by adding Fe^2+.
Antioxidant activity. […] The percentage of inhibition was calculated with respect to DMSO control. All compounds were tested at 100 μg/ml and the positive controls BHA, BHT and TBHQ were tested at 10 μM.

[2] = molecular target: T1, COX-2 enzyme (human PGHS-2) isolated from insect cells (Homo sapiens, UniProt P35354); experiment: Cyclooxygenase enzyme inhibitory assay, COX-2 (initial rate of O2 uptake)
T1 sequence (P35354 18-604): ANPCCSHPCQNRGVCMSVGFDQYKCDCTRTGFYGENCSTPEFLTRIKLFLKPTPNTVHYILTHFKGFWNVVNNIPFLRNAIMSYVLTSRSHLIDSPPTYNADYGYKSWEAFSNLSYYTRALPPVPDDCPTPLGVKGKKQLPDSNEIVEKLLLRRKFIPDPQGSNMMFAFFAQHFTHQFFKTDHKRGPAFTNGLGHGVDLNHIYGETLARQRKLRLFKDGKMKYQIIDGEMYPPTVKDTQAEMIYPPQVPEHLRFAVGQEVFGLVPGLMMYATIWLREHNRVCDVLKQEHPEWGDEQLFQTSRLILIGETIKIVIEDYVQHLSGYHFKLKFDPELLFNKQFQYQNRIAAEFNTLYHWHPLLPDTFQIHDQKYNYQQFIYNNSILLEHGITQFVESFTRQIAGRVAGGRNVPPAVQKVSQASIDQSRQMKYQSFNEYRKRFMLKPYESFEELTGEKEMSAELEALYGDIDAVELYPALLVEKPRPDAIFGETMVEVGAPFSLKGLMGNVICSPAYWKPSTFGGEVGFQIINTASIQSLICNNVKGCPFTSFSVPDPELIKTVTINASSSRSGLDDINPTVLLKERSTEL
Protocol: (§1) The withanolides isolated from the leaves were evaluated for their cyclooxygenase (COX) enzyme inhibitory activity using prostaglandin endoperoxide synthase isozymes-1 (COX-1) and PGHS-2 (COX-2).
(§2) Cyclooxygenase enzyme inhibitory assay. COX-1 enzyme was prepared from ram seminal vesicles and COX-2 enzyme was isolated from insect cells cloned with human PGHS-2 enzyme. The inhibitory effects of test compounds on COX-1 and -2 were measured by monitoring the initial rate of 02 uptake using an oxygen electrode (Instech Laboratories, Plymouth Meeting, Pa.) attached to a biological oxygen monitor (Yellow Spring Instrument, Inc., Yellow Spring, Ohio) at 37° C. The enzymes were diluted (1:1) with Tris buffer (pH 7, 10-15 μl) and the test compounds (100 μg/ml, 10 μl) dissolved in DMSO were added to the assay mixture composed of 3 ml of 0.1 M Tris HCl, pH 7, 1 mmol phenol and 85 μg of hemoglobin. […] The instantaneous inhibition was measured by using Quick Log Data acquisition and control computer software (Strawberry Tree Inc., Sunnyvale, Calif., USA).

[3] = molecular target: T2, COX-1 enzyme (prostaglandin endoperoxide synthase isozyme-1) prepared from ram seminal vesicles (Ovis aries, UniProt P05979); experiment: Cyclooxygenase enzyme inhibitory assay, COX-1 (initial rate of O2 uptake)
T2 sequence (P05979 25-600): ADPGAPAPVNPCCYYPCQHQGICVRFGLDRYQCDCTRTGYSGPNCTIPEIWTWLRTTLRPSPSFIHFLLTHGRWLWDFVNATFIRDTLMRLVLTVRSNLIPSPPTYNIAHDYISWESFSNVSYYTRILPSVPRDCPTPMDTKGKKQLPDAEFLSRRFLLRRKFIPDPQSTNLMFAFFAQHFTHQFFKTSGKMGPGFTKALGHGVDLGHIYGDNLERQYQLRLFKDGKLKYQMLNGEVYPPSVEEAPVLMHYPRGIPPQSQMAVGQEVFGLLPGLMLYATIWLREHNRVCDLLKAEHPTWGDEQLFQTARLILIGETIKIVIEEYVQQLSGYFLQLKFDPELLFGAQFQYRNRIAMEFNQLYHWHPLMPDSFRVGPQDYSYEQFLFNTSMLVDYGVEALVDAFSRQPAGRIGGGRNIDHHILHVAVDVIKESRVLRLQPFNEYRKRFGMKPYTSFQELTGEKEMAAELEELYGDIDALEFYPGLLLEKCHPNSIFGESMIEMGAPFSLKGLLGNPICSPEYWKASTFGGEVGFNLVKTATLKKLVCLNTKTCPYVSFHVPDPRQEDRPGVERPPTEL
Protocol: as §1, §2

| Compound | COX-2 enzyme inhibition ([2]; 50 μg/ml) | inhibition of lipid peroxidation [1] | COX-2 enzyme inhibition ([2]; 100 μg/ml) | further results |
| --- | --- | --- | --- | --- |
| CC1=C(CO)C(=O)O[C@@H]([C@@H](C)[C@H]2CC[C@H]3[C@@H]4C[C@H]5O[C@]56[C@@H](O)C=CC(=O)[C@]6(C)[C@H]4CC[C@]23C)C1 [Compound 6, withaferin A] | – | did not show activity | 39% | – |
| CC1=C(CO[C@@H]2O[C@H](CO)[C@@H](O)[C@H](O)[C@H]2O)C(=O)O[C@@H]([C@@H](C)[C@H]2CC[C@H]3[C@@H]4C[C@H]5O[C@]56[C@@H](O)C=CC(=O)[C@]6(C)[C@H]4CC[C@]23C)C1 [Compound 10, sitoindoside IX] | – | 44% | – | inhibition at 100 µg/mL ([2]; read-out: COX-2 enzyme inhibition): 13% |
| COc1ccc2cc([C@H](C)C(=O)O)ccc2c1 [naproxen, reference compound] | – | – | – | inhibition at 2.5 µg/mL ([3]; read-out: COX-1 inhibition): 79%; inhibition at 2.5 µg/mL ([2]; read-out: COX-2 inhibition): 95% |
| CC(=O)Oc1ccccc1C(=O)O [Aspirin, reference compound] | – | – | – | COX-1 inhibition ([3]; tested at 180 μg/ml): 61%; inhibition at 180 µg/mL ([2]; read-out: COX-2 inhibition): 7% |
| CC1=C(CO)C(=O)O[C@@H]([C@@H](C)[C@H]2CC[C@H]3[C@@H]4C[C@H]5O[C@]56[C@@H](O)[C@@H](O)CC(=O)[C@]6(C)[C@H]4CC[C@]23C)C1 [Compound 8, viscosalactone B] | – | did not show activity | 35% | – |
| CC1=C(CO)C(=O)O[C@@H]([C@@H](C)[C@H]2CC[C@H]3[C@@H]4CC=C5C[C@@H](O[C@@H]6O[C@H](CO[C@@H]7O[C@H](CO)[C@@H](O)[C@H](O)[C@H]7O)[C@@H](O)[C@H](O)[C@H]6O)C[C@H](O)[C@]5(C)[C@H]4CC[C@]23C)C1 [Compound 12, withanolide IV] | – | did not show activity | 23% | – |
| 23,24-dihydrowithaferin A [Compound 9] | – | did not show activity | neither COX-1 nor COX-2 activities | COX-1 activity ([3]; 100 μg/ml): neither COX-1 nor COX-2 activities |
| CC1=C(CO)C(=O)O[C@@H]([C@@H](C)[C@H]2CC[C@H]3[C@@H]4CC=C5C[C@@H](O[C@@H]6O[C@H](CO)[C@@H](O)[C@H](O)[C@H]6O)C[C@H](O)[C@]5(C)[C@H]4CC[C@]23C)C1 [Compound 11, physagulin D] | – | 55% | 14% | – |
| CC1=C(CO[C@@H]2O[C@H](CO)[C@@H](O)[C@H](O)[C@H]2O)C(=O)OC([C@@H](C)[C@H]2CC[C@H]3[C@@H]4C[C@H]5O[C@]56[C@@H](O)[C@@H](O)CC(=O)[C@]6(C)[C@H]4CC[C@]23C)C1 (stereo partly drawn) [Compound 3, 27-O-β-D-glucopyranosyl viscosalactone B] | 7% | – | – | – |
| CC1=C(CO)C(=O)OC(C(C)C2CCC3C4CC5OC56C(O)CCC(=O)C6(C)C4CCC23C)C1 (centres unmarked) [Compound 7, 2,3-dihydrowithaferin A] | – | 5% | 27% | – |

The next lines start with results.

| COX-2 enzyme inhibition ([2]; 50 μg/ml) | Compound | inhibition of lipid peroxidation [1] | COX-2 enzyme inhibition ([2]; 100 μg/ml) | further results |
| --- | --- | --- | --- | --- |
| 5% | 4,16-dihydroxy-5β,6β-epoxyphysagulin D [Compound 4] | 40% | – | – |
| 9% | 27-O-β-D-glucopyranosyl physagulin D [Compound 2] | – | – | – |
| 15% | 4-(1-hydroxy-2,2-dimethylcyclo-propanone)-2,3-dihydrowithaferin A [Compound 5] | did not show activity | – | – |
| 15% | physagulin D (1→6)-β-D-glucopyranosyl-(1→4)-β-D-glucopyranoside [Compound 1] | – | – | – |
